Source: PMC10343501 (Molecules, 2023)

Tests used:
Format in all cases: cell-based
Settings in all cases: read-out: % inhibition at 100 nM
hERG potassium channel [1] = target: T1, hERG potassium channel (Homo sapiens, UniProt Q12809); assay: whole-cell patch clamp, HEK-293 cells, […] inhibition at […] (RT), […] (PT)
T1 construct: gene KCNH2

hERG potassium channel [2] = target: T2, hERG potassium channel (Homo sapiens, UniProt Q12809, Y652A); assay: whole-cell patch clamp, transfected HEK-293 cells, […], RT
T2 construct: gene KCNH2
T2 sequence (Q12809 whole entry Y652A): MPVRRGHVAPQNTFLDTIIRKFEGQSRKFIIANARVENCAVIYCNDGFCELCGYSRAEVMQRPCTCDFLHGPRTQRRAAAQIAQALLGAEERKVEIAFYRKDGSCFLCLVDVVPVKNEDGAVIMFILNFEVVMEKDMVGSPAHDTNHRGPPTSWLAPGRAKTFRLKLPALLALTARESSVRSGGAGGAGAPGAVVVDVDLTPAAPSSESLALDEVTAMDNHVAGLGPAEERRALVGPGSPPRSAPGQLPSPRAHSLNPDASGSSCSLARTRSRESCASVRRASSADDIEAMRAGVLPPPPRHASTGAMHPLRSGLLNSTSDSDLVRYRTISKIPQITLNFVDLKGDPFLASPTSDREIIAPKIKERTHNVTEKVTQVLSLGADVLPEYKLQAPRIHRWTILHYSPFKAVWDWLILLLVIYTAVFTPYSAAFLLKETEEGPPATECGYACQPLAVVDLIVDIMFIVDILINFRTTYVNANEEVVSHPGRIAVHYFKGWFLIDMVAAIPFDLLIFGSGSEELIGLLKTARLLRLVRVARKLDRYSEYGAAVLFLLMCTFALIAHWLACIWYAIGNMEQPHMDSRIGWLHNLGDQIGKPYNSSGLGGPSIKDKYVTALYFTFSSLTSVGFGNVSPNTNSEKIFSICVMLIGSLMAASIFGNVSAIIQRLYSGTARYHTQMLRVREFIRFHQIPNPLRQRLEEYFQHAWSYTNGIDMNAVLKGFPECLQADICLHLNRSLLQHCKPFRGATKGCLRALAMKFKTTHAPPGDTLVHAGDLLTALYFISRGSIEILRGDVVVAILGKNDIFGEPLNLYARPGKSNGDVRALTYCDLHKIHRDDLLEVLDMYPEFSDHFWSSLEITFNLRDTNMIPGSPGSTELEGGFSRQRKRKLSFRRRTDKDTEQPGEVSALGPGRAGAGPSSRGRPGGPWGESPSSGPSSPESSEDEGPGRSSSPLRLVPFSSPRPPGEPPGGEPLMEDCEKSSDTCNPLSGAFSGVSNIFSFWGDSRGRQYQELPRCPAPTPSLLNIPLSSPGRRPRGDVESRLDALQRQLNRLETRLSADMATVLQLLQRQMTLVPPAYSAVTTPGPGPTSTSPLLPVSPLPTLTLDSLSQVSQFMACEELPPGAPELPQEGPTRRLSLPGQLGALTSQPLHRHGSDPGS

hERG potassium channel [3] = target: T3, hERG potassium channel (Homo sapiens, UniProt Q12809, S624A); assay: as above
T3 construct: gene KCNH2
T3 sequence (Q12809 whole entry S624A): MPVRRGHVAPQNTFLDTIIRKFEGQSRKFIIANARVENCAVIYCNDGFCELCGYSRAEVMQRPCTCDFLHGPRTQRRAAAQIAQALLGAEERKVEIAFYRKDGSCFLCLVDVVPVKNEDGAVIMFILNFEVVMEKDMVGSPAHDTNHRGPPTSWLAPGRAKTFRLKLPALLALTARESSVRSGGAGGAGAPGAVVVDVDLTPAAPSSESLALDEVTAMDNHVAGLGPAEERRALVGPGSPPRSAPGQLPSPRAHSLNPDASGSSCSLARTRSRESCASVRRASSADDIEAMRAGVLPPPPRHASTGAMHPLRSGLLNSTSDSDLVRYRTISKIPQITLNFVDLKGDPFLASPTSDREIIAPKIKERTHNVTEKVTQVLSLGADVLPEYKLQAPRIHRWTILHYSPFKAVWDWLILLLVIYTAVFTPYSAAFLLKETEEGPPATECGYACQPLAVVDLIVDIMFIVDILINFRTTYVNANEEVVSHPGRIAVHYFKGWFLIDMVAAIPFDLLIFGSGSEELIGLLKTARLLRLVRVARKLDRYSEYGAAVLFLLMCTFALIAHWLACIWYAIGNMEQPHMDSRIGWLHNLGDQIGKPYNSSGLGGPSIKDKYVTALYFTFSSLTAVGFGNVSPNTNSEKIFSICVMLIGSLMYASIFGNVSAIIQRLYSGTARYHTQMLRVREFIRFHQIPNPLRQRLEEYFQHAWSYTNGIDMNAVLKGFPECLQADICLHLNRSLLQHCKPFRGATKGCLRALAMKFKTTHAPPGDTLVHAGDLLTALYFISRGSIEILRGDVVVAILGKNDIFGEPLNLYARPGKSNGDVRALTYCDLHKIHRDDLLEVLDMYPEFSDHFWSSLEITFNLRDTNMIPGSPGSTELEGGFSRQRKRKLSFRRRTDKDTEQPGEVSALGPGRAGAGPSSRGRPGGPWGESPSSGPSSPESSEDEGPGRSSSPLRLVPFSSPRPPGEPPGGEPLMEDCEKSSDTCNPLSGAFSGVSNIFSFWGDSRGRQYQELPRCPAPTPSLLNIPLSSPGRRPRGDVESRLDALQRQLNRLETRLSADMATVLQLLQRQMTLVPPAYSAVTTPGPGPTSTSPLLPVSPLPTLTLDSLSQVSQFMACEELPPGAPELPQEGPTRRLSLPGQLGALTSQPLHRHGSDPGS

T1 sequence (Q12809 whole entry): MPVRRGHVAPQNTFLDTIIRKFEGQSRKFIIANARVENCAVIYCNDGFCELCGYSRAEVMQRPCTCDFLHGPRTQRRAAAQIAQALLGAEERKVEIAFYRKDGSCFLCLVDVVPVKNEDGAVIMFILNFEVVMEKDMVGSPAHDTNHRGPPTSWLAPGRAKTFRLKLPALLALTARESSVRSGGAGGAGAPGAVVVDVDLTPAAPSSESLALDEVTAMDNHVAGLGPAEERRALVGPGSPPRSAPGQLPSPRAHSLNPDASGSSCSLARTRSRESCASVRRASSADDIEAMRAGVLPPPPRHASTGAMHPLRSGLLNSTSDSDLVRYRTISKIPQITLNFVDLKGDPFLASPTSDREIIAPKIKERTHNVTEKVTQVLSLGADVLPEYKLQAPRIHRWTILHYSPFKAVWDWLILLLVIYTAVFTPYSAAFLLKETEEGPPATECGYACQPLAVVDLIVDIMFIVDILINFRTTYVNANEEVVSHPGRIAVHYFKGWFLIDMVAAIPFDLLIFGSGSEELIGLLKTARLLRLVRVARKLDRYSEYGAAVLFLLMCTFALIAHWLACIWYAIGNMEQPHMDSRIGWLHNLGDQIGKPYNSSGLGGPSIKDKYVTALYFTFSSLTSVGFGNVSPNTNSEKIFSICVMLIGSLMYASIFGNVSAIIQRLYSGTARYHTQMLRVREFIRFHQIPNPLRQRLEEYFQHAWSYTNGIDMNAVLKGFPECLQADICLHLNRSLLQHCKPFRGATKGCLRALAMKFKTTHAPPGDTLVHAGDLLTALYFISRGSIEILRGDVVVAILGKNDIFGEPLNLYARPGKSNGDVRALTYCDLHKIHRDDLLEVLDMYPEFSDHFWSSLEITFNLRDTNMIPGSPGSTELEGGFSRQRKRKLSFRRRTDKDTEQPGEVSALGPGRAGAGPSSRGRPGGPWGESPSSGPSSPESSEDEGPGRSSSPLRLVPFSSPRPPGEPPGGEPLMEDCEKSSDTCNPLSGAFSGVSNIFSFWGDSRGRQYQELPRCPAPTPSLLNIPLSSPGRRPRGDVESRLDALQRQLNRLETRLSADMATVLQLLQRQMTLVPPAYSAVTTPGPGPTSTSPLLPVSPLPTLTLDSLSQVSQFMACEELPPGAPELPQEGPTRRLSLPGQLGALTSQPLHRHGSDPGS

## COc1cc(N)c(Cl)cc1C(=O)NC1CCN(CCCOc2ccc(F)cc2)CC1OC (stereo not drawn) [cisapride]
hERG potassium channel [1]
  inhibition at 0.1 µM: 75.9%
hERG potassium channel [2]
  inhibition at 0.1 µM: 33.9%
hERG potassium channel [3]
  inhibition at 0.1 µM: 44%
